Measured values taken from paper PMC6277767, “Broad and Region-Specific Impacts of the Synthetic Cannabinoid CP 55,940 in Adolescent and Adult Female Mouse Brains” (Frontiers in Molecular Neuroscience, 2018).

Test system: CD1 female mouse brain lipidome
Assay: Brain-region lipid levels (HPLC/MS/MS lipidomics) 2 h after single i.p. 3 mg/kg CP 55,940 vs vehicle
Assay type: in vivo
Design: N-arachidonoyl phenylalanine level, Mean / N-stearoyl tryptophan level, Mean / N-stearoyl proline level, Mean / N-stearoyl leucine level, Mean / N-stearoyl phenylalanine level, Mean / N-stearoyl serine level, Mean / N-stearoyl methionine level, Mean: unit: moles per gram
Experimental: The Bloomington Institutional Animal Care and Use Committee of Indiana University reviewed and approved the animal procedures. Female mice from the CD1 strain were utilized to match our study examining THC’s effects on the brain lipidome ([Leishman et al., 2018]). Mice were given a single i.p. injection of either 3 mg/kg CP or 1:1:18 cremophor:ethanol:saline vehicle (please refer to the section “3 mg/kg CP Is Relevant for Synthetic Cannabinoid Abuse and Has Stronger Effects on the Female Mouse Brain Lipidome During Adolescence” for a justification of dose and use of female mice). Three different age groups were given injections: PND 35 and PND 50 adolescents, and adult mice (PND 113). At least eight mice in each age group received CP and at least eight received vehicle. Matching the THC study time course ([Leishman et al., 2018]), mice were sacrificed via rapid decapitation 2 h after injection. Brains were immediately removed and flash-frozen in liquid nitrogen, and then stored at -80°C until dissections were performed. Brains were dissected on an ice-cold dissection plate into the following regions: STR, HIPP, CER, THAL, CTX, HYP, MID, and STEM. These abbreviations for these brain areas will be used exclusively when discussing the results generated by these specific dissections. Each dissected area was immediately placed in liquid nitrogen and then stored at -80°C until used for lipid extraction.
Tissue extracts were performed as previously described ([Bradshaw et al., 2006]; [Stuart et al., 2013]; [Raboune et al., 2014]; [Leishman et al., 2016a],[b], [2017], [2018]). First, samples were shock frozen in liquid nitrogen, weighed, and transferred to a centrifuge tube. The mass of the largest sample was multiplied by 50 to determine how many milliliters of HPLC-grade methanol (Fisher, Fair Lawn, NJ, United States) to add. Then, samples were spiked with 500 pmol deuterium-labeled NAGly (d8NAGly; Cayman Chemical, Ann Arbor, MI, United States). Samples were placed on ice in darkness for 2 h then individually homogenized and centrifuged at 19,000 × g for 20 min at 20°C. Supernatants were diluted with HPLC water (purified in house) to make a solution of 75% water, 25% supernatant. Lipids were partially purified on C18 solid phase extraction columns (Agilent, Palo Alto, CA, United States). A series of four elutions with 1.5 mL of 60%, 75%, 85%, and 100% methanol were collected ([Stuart et al., 2013]; [Leishman et al., 2016a],[b], [2018]).
As previously described ([Bradshaw et al., 2006]; [Tan et al., 2006]; [Smoum et al., 2010]; [Stuart et al., 2013]; [Tortoriello et al., 2013]; [Raboune et al., 2014]; [Leishman et al., 2016a],[b], [2017], [2018]), samples were analyzed using an Applied Biosystems API 3000 triple quadrupole mass spectrometer with electrospray ionization (Foster City, CA, United States). Using an Agilent XDB-C18 reversed phase analytical column and optimized mobile phase gradients, 20 μL from each elution were chromatographed. Two Shimadzu 10ADvp pumps (Columbia, MD, United States) provided the pressure for gradient elution. Mobile phase A: 20% methanol, 80% water (v/v) and 1 mM ammonium acetate (Sigma, St. Louis, MO, United States). Mobile phase B: 100% methanol, 1 mM ammonium acetate. Every method run began with 0% mobile phase B, reached 100% mobile phase B flowing at 0.2 mL/min, and gradually returned to 0% mobile phase B.
This screening library will be referred to as the lipidome when discussing data from this study. HPLC/MS/MS data were analyzed using Analyst software (Applied Biosystems) ([Bradshaw et al., 2006]; [Tan et al., 2006]; [Stuart et al., 2013]; [Tortoriello et al., 2013]; [Raboune et al., 2014]; [Leishman et al., 2016a],[b], [2017], [2018]). Chromatograms (Supplementary Figure 3) were generated by determining the retention time of analytes from the analytical column with a [M-1] or [M+1] parent peak and a fragmentation peak corresponding to the programmed values. […]

[1] = cortex, PND 35, 3 mg/kg CP 55,940
[2] = cortex, PND 35 adolescent female mice, 3 mg/kg CP 55,940
[3] = hippocampus, PND 50, 3 mg/kg CP 55,940 vs Veh

Compound: CCCCCCC(C)(C)c1ccc([C@@H]2C[C@H](O)CC[C@H]2CCCO)c(O)c1 [CP 55,940]
- N-oleoyl valine Magnitude (x Veh level) [1]: 1.33 x Veh level
- N-palmitoyl leucine Direction (rel to Veh) [1]: ↑
- N-palmitoyl leucine, Magnitude (x Veh level) [1]: 1.52 x Veh level
- N-palmitoyl serine Direction (rel to Veh) [1]: ↓
- N-palmitoyl serine, Magnitude (x Veh level) [1]: 0.77 x Veh level
- N-palmitoyl tyrosine Direction (rel to Veh) [1]: ↑
- N-palmitoyl tyrosine Magnitude (x Veh level) [1]: 1.25 x Veh level
- N-palmitoyl valine Direction (rel to Veh) [1]: ↑
- N-palmitoyl valine Magnitude (x Veh level) [1]: 1.57 x Veh level
- N-stearoyl serine Direction (rel to Veh) [1]: ↓
- N-stearoyl serine Magnitude (x Veh level) [1]: 0.84 x Veh level
- N-stearoyl tyrosine Direction (rel to Veh) [1]: ↑
- N-stearoyl tyrosine Magnitude (x Veh level) [1]: 1.46 x Veh level
- N-stearoyl valine Direction (rel to Veh) [1]: ↑
- N-stearoyl valine Magnitude (x Veh level) [1]: 1.32 x Veh level
- PGF2α Direction (rel to Veh) [1]: ↑
- PGF2α Magnitude (x Veh level) [1]: 1.19 x Veh level
- phosphoLEA Direction (rel to Veh) [1]: ↑
- phosphoLEA Magnitude (x Veh level) [1]: 1.51 x Veh level
- 2-arachidonoyl glycerol level, Mean [2]: 1.2E-09
- 2-linoleoyl glycerol level, Mean [2]: 1.12E-10
- 2-oleoyl glycerol level, Mean [2]: 5.02E-09
- 2-palmitoyl glycerol level, Mean [2]: 5.49E-09
- 6-ketoPGF1α level, Mean [2]: 5.64E-12
- Arachidonic acid level, Mean [2]: 1.78E-09
- Linoleic acid level, Mean [2]: 6.06E-10
- N- stearoyl valine level, Mean [2]: 1.46E-12
- N-arachidonoyl GABA level, Mean [2]: 2.26E-11
- N-arachidonoyl alanine level, Mean [2]: 2.81E-12
- N-arachidonoyl dopamine level, Mean [2]: BDL
- N-arachidonoyl ethanolamine level, Mean [2]: 1.13E-10
- N-arachidonoyl glycine level, Mean [2]: 1.35E-11
- N-arachidonoyl methionine level, Mean [2]: 2.69E-13
- N-arachidonoyl phenylalanine level, Mean [2]: 7.25E-13
- N-arachidonoyl proline level, Mean [2]: BDL
- N-arachidonoyl serine level, Mean [2]: 2.41E-12
- N-arachidonoyl taurine level, Mean [2]: 1.3E-10
- N-arachidonoyl tryptophan level, Mean [2]: BDL
- N-arachidonoyl tyrosine level, Mean [2]: 8.47E-13
- N-docosahexaenoyl GABA level, Mean [2]: 4.81E-12
- N-docosahexaenoyl alanine level, Mean [2]: 7.37E-13
- N-docosahexaenoyl ethanolamine level, Mean [2]: 1.21E-10
- N-docosahexaenoyl glycine level, Mean [2]: 1.18E-12
- N-docosahexaenoyl leucine level, Mean [2]: 1.02E-12
- N-docosahexaenoyl phenylalanine level, Mean [2]: 5.48E-13
- N-docosahexaenoyl proline level, Mean [2]: BDL
- N-docosahexaenoyl serine level, Mean [2]: 5.64E-12
- N-docosahexaenoyl tryptophan level, Mean [2]: BDL
- N-docosahexaenoyl tyrosine level, Mean [2]: 5.7E-13
- N-docosahexaenoyl valine level, Mean [2]: 2.57E-13
- N-linoleoyl GABA level, Mean [2]: 3.78E-12
- N-linoleoyl alanine level, Mean [2]: 6.3E-13
- N-linoleoyl ethanolamine level, Mean [2]: 2.31E-10
- N-linoleoyl glycine level, Mean [2]: 3.61E-13
- N-linoleoyl leucine level, Mean [2]: 1.58E-13
- N-linoleoyl phenylalanine level, Mean [2]: 1.48E-13
- N-linoleoyl proline level, Mean [2]: BDL
- N-linoleoyl serine level, Mean [2]: 1.38E-11
- N-linoleoyl tryptophan level, Mean [2]: BDL
- N-nervonoyl valine level, Mean [2]: BDL
- N-oleoyl GABA level, Mean [2]: 9.1E-12
- N-oleoyl alanine level, Mean [2]: 2.8E-12
- N-oleoyl dopamine level, Mean [2]: BDL
- N-oleoyl ethanolamine level, Mean [2]: 4.68E-10
- N-oleoyl glycine level, Mean [2]: 5.53E-12
- N-oleoyl leucine level, Mean [2]: 4.34E-13
- N-oleoyl methionine level, Mean [2]: 4.2E-13
- N-oleoyl phenylalanine level, Mean [2]: 2.01E-12
- N-oleoyl serine level, Mean [2]: 5.9E-11
- N-oleoyl tyrosine level, Mean [2]: 6.76E-13
- N-oleoyl valine level, Mean [2]: 4.65E-13
- N-palmitoyl GABA level, Mean [2]: 1.28E-11
- N-palmitoyl alanine level, Mean [2]: 4.96E-12
- N-palmitoyl ethanolamine level, Mean [2]: 1.43E-10
- N-palmitoyl glycine level, Mean [2]: 1.28E-11
- N-palmitoyl leucine level, Mean [2]: 1.76E-12
- N-palmitoyl methionine level, Mean [2]: 1.41E-12
- N-palmitoyl phenylalanine level, Mean [2]: 3.73E-12
- N-palmitoyl proline level, Mean [2]: 7.7E-14
- N-palmitoyl serine level, Mean [2]: 1.08E-11
- N-palmitoyl tryptophan level, Mean [2]: 9.75E-13
- N-palmitoyl tyrosine level, Mean [2]: 1.99E-12
- N-palmitoyl valine level, Mean [2]: 1.52E-12
- N-stearoyl GABA level, Mean [2]: 1.48E-11
- N-stearoyl alanine level, Mean [2]: 1.04E-11
- N-stearoyl ethanolamine level, Mean [2]: 5.63E-11
- N-stearoyl glycine level, Mean [2]: 7.24E-12
- N-stearoyl leucine level, Mean [2]: 1.55E-12
- N-stearoyl methionine level, Mean [2]: 1.68E-12
- N-stearoyl phenylalanine level, Mean [2]: 3.37E-12
- N-stearoyl proline level, Mean [2]: 3.31E-14
- N-stearoyl serine level, Mean [2]: 1.35E-11
- N-stearoyl tryptophan level, Mean [2]: 3.26E-12
- N-stearoyl tyrosine level, Mean [2]: 3.04E-13
- Oleic acid level, Mean [2]: 6.83E-09
- PGE2 level, Mean [2]: 4.31E-10
- PhosphoLEA level, Mean [2]: 8.98E-12
- 2-linoleoyl glycerol Direction (relative to Veh) [3]: ↓
- 2-linoleoyl glycerol Magnitude (x Veh level) [3]: 0.73 x Veh level
- 6-ketoPGF1α Direction (relative to Veh) [3]: ↑
- 6-ketoPGF1α Magnitude (x Veh level) [3]: 1.46 x Veh level
- Linoleic acid, Direction (relative to Veh) [3]: ↓
